Key:
platelets = experiment: Platelet aggregation inhibiting activity (ADP-induced, platelet rich plasma); format: cell-based, rat; conditions: for IC50: rat platelet rich plasma, 100 μM ADP, 5 μl, 37° C., 1 min preincubation
Method: Blood was totally taken from the abdominal aorta of an anesthetized rat (body weight: 500 g). Then, 1/10 volume part of 3.8% sodium citrate was added to the sampled blood and the mixture was centrifugally separated at 1,000 rpm for ten minutes to achieve an upper layer of platelet rich plasma (PRP). The lower layer was then further centrifugally separated at 3,000 rpm for ten minutes to prepare platelet poor plasma (PPP). The number of platelets in PRP was measured, and PPP was diluted to adjust the number to […] to serve as a platelet solution. The platelet solution was placed in an amount of 90 μl into a cuvette, and the drug to be tested in an amount of […] was added for incubation at 37° C. for one minute. Then, an aggregation agent (100 μM ADP) in an amount of 5 μl was added to cause aggregation of platelets, and changes in […] were measured. Control of aggregation activity was conducted by using turbidity upon addition of physiological saline.

[1] = tested on: prostacyclin receptor (CNS) in the thalamus ([^3 H] isocarbacyclin receptor); experiment: Displacement test relative to tritium-labelled isocarbacyclin, thalamus (CNS), autoradiography of frozen brain sections; format: binding, rat; conditions: for Binding ratio to [^3 H] isocarbacyclin receptor: thalamus (CNS), 10 nM [^3 H]isocarbacyclin, 4° C., 2 h, pH 7.4
Method: (§1) Blood ingredients were removed from the brain of a rat by systemic perfusion, and were frozen, thus preparing a frozen section having a thickness of 10 μm. This section was incubated with 10 nM [^3 H]isocarba cyclin and isocarbacyclin derivatives at various concentrations, at 4° C. for two hours in 50 mM Tris/HCl pH 7.4 and 20 mM MgCl2 solution. After incubation and washing, the solution was dried, thereby preparing an autoradiography film of the section. A displacement value for each derivative was determined by quantitative analysis of the autoradiography (n=at least 4).
1) The results in the thalamus (CNS) are shown in Tables 1 and 2 for the following compounds: [drawing 27]

[2] = biological target: T1, prostacyclin receptor (PNS) in the medulla oblongata nucleus ([^3 H] isocarbacyclin receptor) (Rattus norvegicus, UniProt P43253); experiment: Displacement test relative to tritium-labelled isocarbacyclin, medulla oblongata nucleus (PNS), autoradiography of frozen brain sections; conditions: 10 nM [^3 H]isocarbacyclin, 4° C., 2 h, pH 7.4, read-out: Binding ratio to [^3 H] isocarbacyclin receptor; for activity at 0.3 µM: un-labelled compound 3 × 10^-7 M; for activity at 0.03 µM: un-labelled compound 3 × 10^-8 M; for activity at 1 µM: un-labelled compound 10^-6 M; for activity at 0.01 µM: un-labelled compound 10^-8 M; for activity at 0.003 µM: un-labelled compound 3 × 10^-9 M; for activity at 0.1 µM: un-labelled compound 10^-7 M
T1 construct: Blood ingredients were removed from the brain of a rat by systemic perfusion; from tissue; host or cells: rat brain, frozen sections, medulla oblongata nucleus (nucleus solitarius) read by autoradiography
Method: as §1

[3] = tested on: platelets aggregation / vasodilation; conditions: compared with natural prostacyclin; cited from earlier work
[4] = neutral or oxidizing conditions; cited from earlier work
[5] = tested on: binding site of iloprost in platelets; conditions: cited from earlier work
[6] = tested on: prostacyclin binding sites in cerebral hemisphere; conditions: autoradiography, frozen cryostat sections; cited from earlier work
nervous system = conditions: cited from earlier work
dopamine D1 receptors = conditions: cited from earlier work
[7] = un-labelled compound 3 × 10^-7 M, 0.3 µM
[8] = un-labelled compound 3 × 10^-8 M, 0.03 µM
[9] = un-labelled compound 3 × 10^-9 M
[10] = un-labelled compound 10^-6 M, 1 µM
[11] = un-labelled compound 10^-7 M, 0.1 µM

T1 sequence (P43253 whole entry, the tested form may be a part): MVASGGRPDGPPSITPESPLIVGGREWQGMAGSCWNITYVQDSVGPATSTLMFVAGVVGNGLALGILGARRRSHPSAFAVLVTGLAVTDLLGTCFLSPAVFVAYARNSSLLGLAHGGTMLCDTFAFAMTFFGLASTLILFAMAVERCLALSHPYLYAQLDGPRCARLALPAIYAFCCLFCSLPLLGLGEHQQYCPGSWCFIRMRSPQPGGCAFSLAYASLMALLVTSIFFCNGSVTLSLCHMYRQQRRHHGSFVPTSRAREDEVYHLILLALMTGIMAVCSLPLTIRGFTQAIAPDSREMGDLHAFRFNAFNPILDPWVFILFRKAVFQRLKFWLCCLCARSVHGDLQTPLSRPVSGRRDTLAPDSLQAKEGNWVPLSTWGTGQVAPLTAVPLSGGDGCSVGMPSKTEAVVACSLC

SMILES | IC50 (platelets) [nM] | Binding ratio to [^3 H] isocarbacyclin receptor [1, 7] [%] | Binding ratio to [^3 H] isocarbacyclin receptor [1, 8] [%] | Binding ratio to [^3 H] isocarbacyclin receptor [1, 9] [%] | Binding ratio to [^3 H] isocarbacyclin receptor [1, 10] [%] | Binding ratio to [^3 H] isocarbacyclin receptor [1, 11] [%] | Binding ratio to [^3 H] isocarbacyclin receptor ([1]; un-labelled compound 10^-8 M) [%] | activity at 0.3 µM [2] [%] | activity at 0.03 µM [2] [%] | activity at 1 µM [2] [%] | activity at 0.01 µM [2] [%] | activity at 0.003 µM [2] [%] | activity at 0.1 µM [2] [%] | other results
Cc1cccc(C[C@@H](O)/C=C/[C@@H]2[C@H]3CC(CCCCC(=O)O)=C[C@H]3C[C@H]2O)c1 [Compound A, 15R-16-(3-methylphenyl)-17, 18, 19, 20-tetranolisocarbacycline] | > 400 | 25.4 | 67.0 | 97.4 | 15.7 | 48.3 | 89.2 | 69.8 | 79.3 | 52.5 | 74.1 |  |  | platelet aggregation inhibiting activity (platelets; in words): almost no platelet aggregation inhibiting activity; binding to the thalamic prostacyclin receptor (CNS) ([1]; in words): firmly bound to the thalamic prostacyclin receptor (CNS); activity relative to the prostacyclin receptor (CNS) in the thalamus ([1]; in words, compared with isocarbacyclin): an activity stronger than that of isocarbacyclin; activity at 0.001 µM ([2]; un-labelled compound 10^-9 M (so in the source)): 84.7%
Cc1cccc(C[C@H](O)/C=C/[C@@H]2[C@H]3CC(CCCCC(=O)O)=C[C@H]3C[C@H]2O)c1 [Compound B] | 19 | 36.6 | 84.6 | 98.6 | 20.1 | 58.0 | 93.9 | 39.5 | 80.5 | 33.8 | 88.3 | 96.6 | 54.8 | 
Cc1cccc(CCC[C@@H](O)/C=C/[C@@H]2[C@H]3CC(CCCCC(=O)O)=C[C@H]3C[C@H]2O)c1 [Compound C] |  | 73.3 | 93.8 | 98.7 | 48.1 | 85.9 | 96.1 | 71.8 | 89.9 | 53.5 | 92 | 95 | 81.3 | 
Cc1cccc(CCC[C@H](O)/C=C/[C@@H]2[C@H]3CC(CCCCC(=O)O)=C[C@H]3C[C@H]2O)c1 [Compound D] |  | 94.1 | 98.4 | 101.1 | 88.5 | 100.8 | 99.8 | 45.8 | 80.6 | 34.4 | 92.8 | 96.9 | 55.6 | 
CCCCC[C@H](O)/C=C/[C@@H]1[C@H]2CC(CCCCC(=O)O)=C[C@H]2C[C@H]1O [Isocarbacyclin, 9(O)-methano-Δ^6(9α) prostaglandin I1] | 2.5 | 34.7 | 76.4 | 99.2 | 19.3 | 62.7 | 94.5 | 22.5 | 57.3 | 8 | 79 | 94 |  | platelets aggregation inhibiting functions and vasodilating antihypertensive effects [3]: strong platelets aggregation inhibiting functions and vasodilating antihypertensive effects and other biological activities well comparable with those of natural prostacyclin
CCCCC[C@H](O)/C=C/[C@@H]1[C@H]2C/C(=C/CCCC(=O)O)O[C@H]2C[C@H]1O [Natural prostacyclin] |  |  |  |  |  |  |  |  |  |  |  |  |  | chemical stability [4]: easily inactivated under neutral or oxidizing conditions
CCCCC[C@H](O)/C=C/[C@H]1[C@H](O)CC(=O)[C@@H]1CCCCCCC(=O)O [Prostaglandin E1, reference compound] | 63 |  |  |  |  |  |  |  |  |  |  |  |  | reaction with the binding site of iloprost [5]: the binding site of iloprost reacts also with PGE1
CC#CCC(C)[C@H](O)/C=C/[C@@H]1[C@H]2C/C(=C/CCCC(=O)O)C[C@H]2C[C@H]1O (some centres unmarked) [[^3 H] iloprost] |  |  |  |  |  |  |  |  |  |  |  |  |  | prostacyclin binding sites found [6]: prostacyclin binding sites in corpus striatum, amygdala, hippocampus and part of the cerebral cortex
CC#CCC(C)[C@H](O)/C=C/[C@@H]1[C@H]2C/C(=C/CCCC(=O)O)C[C@H]2C[C@H]1O (some centres unmarked) [iloprost] |  |  |  |  |  |  |  |  |  |  |  |  |  | effects on the nervous system (nervous system): sedation, anticonvulsation, antihypoxemia (prolongation effects in hypoxemia) and synchronizing induction effects of brain waves antagonized by amphetamine; prevention of the binding of dopamine D1 receptors (dopamine D1 receptors): prevention of the binding of dopamine D1 receptors

— patent US5700833A, “Isocarbacyclin derivatives” (Research Developement Corporation of Japan, priority 1995, dated 1997)
